Experimental data as given in patent US20240124487A1, “BRANCHED MACROCYCLIC 4-(PYRAZOL-5-YL)-INDOLE DERIVATIVES AS INHIBITORS OF MCL-1” (JANSSEN PHARMACEUTICA NV, priority 2020, published 2024).

Experiments:
[1] = biological target: Myeloid Cell Leukemia 1 (Mcl-1) (Homo sapiens (Human), UniProt Q07820); experiment: Terbium labeled Mcl-1 HTRF binding assay (displacement of Cy5-labeled BIM BH3 peptide); conditions: 25 pM Tb-Mcl-1, 8 nM Cy5 Bim peptide, Ki=IC50/(1+[L]/Kd), [L]=8 nM, Kd=10 nM, read-out: TB-MCL1 Ki
Chain of Myeloid Cell Leukemia 1 (Mcl-1) (Q07820 whole entry): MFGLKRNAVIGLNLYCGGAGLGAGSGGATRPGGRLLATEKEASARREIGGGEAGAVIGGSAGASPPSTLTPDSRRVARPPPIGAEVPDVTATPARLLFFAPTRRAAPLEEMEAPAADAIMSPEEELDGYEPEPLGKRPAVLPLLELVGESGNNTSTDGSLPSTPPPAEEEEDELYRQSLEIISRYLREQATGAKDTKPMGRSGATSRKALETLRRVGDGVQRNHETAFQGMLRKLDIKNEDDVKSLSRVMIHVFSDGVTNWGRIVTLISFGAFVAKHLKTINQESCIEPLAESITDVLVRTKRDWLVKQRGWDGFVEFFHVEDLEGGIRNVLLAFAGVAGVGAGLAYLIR
Experimental: Terbium labeled Myeloid Cell Leukemia 1 (Mcl-1) homogeneous time-resolved fluorescence (HTRF) binding assay utilizing the BIM BH3 peptide (H2N-(C/Cy5Mal) WIAQELRRIGDEFN-OH) as the binding partner for Mcl-1.
This assay evaluated inhibition of the BH3 domain: Mcl-1 interaction by measuring the displacement of Cy5-labeled BIM BH3 peptide (H2N—(C/Cy5Mal) WIAQELRRIGDEFN-OH) in the HTRF assay format.
The following assay and stock buffers were prepared for use in the assay: (a) Stock buffer: 10 mM Tris-HCl, pH=7.5+150 mM NaCl, filtered, sterilized, and stored at 4° C.; and (b) 1× assay buffer, where the following ingredients were added fresh to stock buffer: 2 mM dithiothreitol (DTT), 0.0025% Tween-20, 0.1 mg/mL bovine serum albumin (BSA). The 1×Tb-Mcl-1+Cy5 Bim peptide solution was prepared by diluting the protein stock solution using the 1× assay buffer (b) to 25 pM Tb-Mcl-1 and 8 nM Cy5 Bim peptide.
Using the Acoustic ECHO, 100 nL of 100× test compound(s) were dispensed into individual wells of a white 384-well Perkin Elmer Proxiplate, for a final compound concentration of 1× and final DMSO concentration of 1%. Inhibitor control and neutral control (NC, 100 nL of 100% DMSO) were stamped into columns 23 and 24 of assay plate, respectively. Into each well of the plate was then dispensed 10 μL of the 1×Tb-Mcl-1+Cy5 Bim peptide solution. The plate was centrifuged with a cover plate at 1000 rpm for 1 minute, then incubated for 60 minutes at room temperature with plates covered. The TR-FRET signal was read on an BMG PHERAStar FSX MicroPlate Reader at room temperature using the HTRF optic module (HTRF: excitation: 337 nm, light source: laser, emission A: 665 nm, emission B: 620 nm, integration start: 60 μs, integration time: 400 pts).
The BMG PHERAStar FSX MicroPlate Reader was used to measure fluorescence intensity at two emission wavelengths—665 nm and 620 nm—and report relative fluorescence units (RFU) for both emissions, as well as a ratio of the emissions (665 nm/620 nm)*10,000. The RFU values were normalized to percent inhibition as follows:
% inhibition=(((NC−IC)−(compound−IC))/(NC−IC))*100
where IC (inhibitor control, low signal)=mean signal of 1×Tb-MC1-1+Cy5 Bim peptide+inhibitor control or 100% inhibition of Mcl-1; NC (neutral control, high signal)=mean signal 1×Tb-MC1-1+Cy5 Bim peptide with DMSO only or 0% inhibition
An 11-point dose response curve was generated to determine IC50 values (using GenData) based on the following equation:
Y=Bottom+(Top−Bottom)/(1+10^((log IC50−X)*HillSlope))
where Y=% inhibition in the presence of X inhibitor concentration; Top=100% inhibition derived from the IC (mean signal of Mcl-1+inhibitor control); Bottom=0% inhibition derived from the NC (mean signal of Mcl-1+DMSO); Hillslope=Hill coefficient; and IC50=concentration of compound with 50% inhibition in relation to top/neutral control (NC).
In this assay [L]=8 nM and Kd=10 nM
Representative compounds of the present invention were tested according to the procedure as described above, with results as listed in the Table below (n.d. means not determined).

[2] = system: MOLP-8 human multiple myeloma cell line; experiment: MOLP8 Caspase-Glo 3/7 apoptosis induction assay; assay type: cell-based; conditions: MOLP-8 cells, 2 hours incubation at 37° C., averaged values over all runs on all batches
Text: MCL-1 is a regulator of apoptosis and is highly over-expressed in tumor cells that escape cell death. The assay evaluates the cellular potency of small-molecule compounds targeting regulators of the apoptosis pathway, primarily MCL-1, Bfl-1, Bcl-2, and other proteins of the Bcl-2 family. Protein-protein inhibitors disrupting the interaction of anti-apoptotic regulators with BH3-domain proteins initiate apoptosis.
The Caspase-Glo® 3/7 Assay is a luminescent assay that measures caspase-3 and -7 activities in purified enzyme preparations or cultures of adherent or suspension cells. The assay provides a proluminescent caspase-3/7 substrate, which contains the tetrapeptide sequence DEVD. This substrate is cleaved to release aminoluciferin, a substrate of luciferase used in the production of light. Addition of the single Caspase-Glo® 3/7 Reagent in an “add-mix-measure” format results in cell lysis, followed by caspase cleavage of the substrate and generation of a “glow-type” luminescent signal.
This assay uses the MOLP-8 human multiple myeloma cell line, which is sensitive to MCL-1 inhibition.
Materials: • Perkin Elmer Envision • Multidrop 384 and small volume dispensing cassettes • Centrifuge • Countess automated cell counter • Countess counting chamber slides • Assay plate: ProxiPlate-384 Plus, White 384-shallow well Microplate • Sealing tape: Topseal A plus • T175 culture flask
Cell cultures were maintained between 0.2 and 2.0×10^6 cells/mL. The cells were harvested by collection in 50 mL conical tubes. The cells were then pelleted at 500 g for 5 mins before removing supernatant and resuspension in fresh pre-warmed culture medium. The cells were counted and diluted as needed.
The assay reagent was prepared by transferring the buffer solution to the substrate vial and mixing. The solution may be stored for up to 1 week at 4° C. with negligible loss of signal.
Compounds were delivered in assay-ready plates (Proxiplate) and stored at −20° C.
Assays always include 1 reference compound plate containing reference compounds. The plates were spotted with 40 nL of compounds (0.5% DMSO final in cells; serial dilution; 30 μM highest conc. 1/3 dilution, 10 doses, duplicates). The compounds were used at room temperature and 4 μL of pre-warmed media was added to all wells except column 2 and 23. The negative control was prepared by adding 1% DMSO in media. The positive control was prepared by adding the appropriate positive control compound in final concentration of 60 μM in media. The plate was prepared by adding 4 μL negative control to column 23, 4 μL positive control to column 2 and 4 μL cell suspension to all wells in the plate. The plate with cells was then incubated at 37° C. for 2 hours. The assay signal reagent is the Caspase-Glo solution described above, and 8 μL was added to all wells. The plates were then sealed and measured after 30 minutes.
The activity of a test compound was calculated as percent change in apoptosis induction as follows: • LC=median of the Low Control values • =Central Reference in Screener • =DMSO • =0% • HC=Median of the High Control values • =Scale Reference in Screener • =30 μM of positive control • =100% apoptosis induction
% Effect (AC50)=100−((sample−LC)/(HC−LC))*100
% Control=(sample/HC)*100
% Control min=((sample−LC)/(HC−LC))*100

Row | Compound | Ki [1] | AC50 [2] | AC50 ([2]; Homo sapiens, MOLP-8, 2 h)
1 | C=CC1OCc2cc(n(C)n2)CCc2cc(c3ccc(F)cc3c2)OCCCn2c(C(=O)O)c(C)c3c(c(Cl)ccc32)-c2c1nn(C)c2C (single isomer, unassigned) [Compound 1] | 0.059 nM | 101 nM | –
2 | C=CC1OCc2cc(n(C)n2)CCc2cc(c3ccc(F)cc3c2)OCCCn2c(C(=O)O)c(C)c3c(c(Cl)ccc32)-c2c1nn(C)c2C (single isomer, unassigned) [Compound 2] | 0.024 nM | 19.5 nM | –
3 | COCCC1OCc2cc(n(C)n2)CCc2cc(c3ccc(F)cc3c2)OCCCn2c(C(=O)O)c(C)c3c(c(Cl)ccc32)-c2c1nn(C)c2C (single isomer, unassigned) [Compound 3] | 0.039 nM | 154 nM | –
4 | COCCC1OCc2cc(n(C)n2)CCc2cc(c3ccc(F)cc3c2)OCCCn2c(C(=O)O)c(C)c3c(c(Cl)ccc32)-c2c1nn(C)c2C (single isomer, unassigned) [Compound 4] | 0.009 nM | 28.4 nM | –
5 | COCCOCCC1OCc2cc(n(C)n2)CCc2cc(c3ccc(F)cc3c2)OCCCn2c(C(=O)O)c(C)c3c(c(Cl)ccc32)-c2c1nn(C)c2C (single isomer, unassigned) [Compound 5] | 0.011 nM | – | 22.6 nM
6 | Cc1c(C(=O)O)n2c3ccc(Cl)c(c13)-c1c(nn(C)c1C)C(CCN1CCOCC1)OCc1cc(n(C)n1)CCc1cc(c3ccc(F)cc3c1)OCCC2 (single isomer, unassigned) [Compound 7] | 0.011 nM | – | 149 nM
7 | Cc1c(C(=O)O)n2c3ccc(Cl)c(c13)-c1c(nn(C)c1C)C(CCN1CCN(C)CC1)OCc1cc(n(C)n1)CCc1cc(c3ccc(F)cc3c1)OCCC2 (single isomer, unassigned) [Compound 8] | 0.013 nM | – | 1160 nM
8 | CCOCCC1OCc2cc(n(C)n2)CCc2cc(c3ccc(F)cc3c2)OCCCn2c(C(=O)O)c(C)c3c(c(Cl)ccc32)-c2c1nn(C)c2C (single isomer, unassigned) [Compound 9] | 0.009 nM | – | 43.6 nM
9 | Cc1c(C(=O)O)n2c3ccc(Cl)c(c13)-c1c(nn(C)c1C)C(CCCO)OCc1cc(n(C)n1)CCc1cc(c3ccc(F)cc3c1)OCCC2 (single isomer, unassigned) [Compound 10] | 0.028 nM | 1060 nM | –
10 | Cc1c(C(=O)O)n2c3ccc(Cl)c(c13)-c1c(nn(C)c1C)C(CCCO)OCc1cc(n(C)n1)CCc1cc(c3ccc(F)cc3c1)OCCC2 (single isomer, unassigned) [Compound 11] | 0.01 nM | 303 nM | –
11 | COCCCC1OCc2cc(n(C)n2)CCc2cc(c3ccc(F)cc3c2)OCCCn2c(C(=O)O)c(C)c3c(c(Cl)ccc32)-c2c1nn(C)c2C (single isomer, unassigned) [Compound 12] | 0.015 nM | 57.8 nM | –
12 | Cc1c(C(=O)O)n2c3ccc(Cl)c(c13)-c1c(nn(C)c1C)C(CN1CCOCC1)OCc1cc(n(C)n1)CCc1cc(c3ccc(F)cc3c1)OCCC2 (single isomer, unassigned) [Compound 13] | 0.058 nM | – | 1370 nM
13 | COCCOCC1OCc2cc(n(C)n2)CCc2cc(c3ccc(F)cc3c2)OCCCn2c(C(=O)O)c(C)c3c(c(Cl)ccc32)-c2c1nn(C)c2C (single isomer, unassigned) [Compound 14] | 0.018 nM | – | 205 nM
14 | COCC1OCc2cc(n(C)n2)CCc2cc(c3ccc(F)cc3c2)OCCCn2c(C(=O)O)c(C)c3c(c(Cl)ccc32)-c2c1nn(C)c2C (single isomer, unassigned) [Compound 15] | 0.048 nM | 66.1 nM | –
15 | COCC1OCc2cc(n(C)n2)CCc2cc(c3ccc(F)cc3c2)OCCCn2c(C(=O)O)c(C)c3c(c(Cl)ccc32)-c2c1nn(C)c2C (single isomer, unassigned) [Compound 16] | 0.104 nM | 230 nM | –
16 | Cc1c(C(=O)O)n2c3ccc(Cl)c(c13)-c1c(nn(C)c1C)C(C)OCc1cc(n(C)n1)CCc1cc(c3ccc(F)cc3c1)OCCC2 (single isomer, unassigned) [Compound 17] | 0.042 nM | 129 nM | –
17 | Cc1c(C(=O)O)n2c3ccc(Cl)c(c13)-c1c(nn(C)c1C)C(C)OCc1cc(n(C)n1)CCc1cc(c3ccc(F)cc3c1)OCCC2 (single isomer, unassigned) [Compound 18] | 0.01 nM | 35.4 nM | –
18 | Cc1c(C(=O)O)n2c3ccc(Cl)c(c13)-c1c(nn(C)c1C)C(CC(C)O)OCc1cc(n(C)n1)CCc1cc(c3ccc(F)cc3c1)OCCC2 (single isomer, unassigned) [Compound 19] | 0.057 nM | – | 1210 nM
19 | Cc1c(C(=O)O)n2c3ccc(Cl)c(c13)-c1c(nn(C)c1C)C(CC(C)O)OCc1cc(n(C)n1)CCc1cc(c3ccc(F)cc3c1)OCCC2 (single isomer, unassigned) [Compound 20] | 0.023 nM | 683 nM | –
20 | Cc1nn2c3c1-c1c(Cl)ccc4c1c(C)c(C(=O)O)n4CCCOc1cc(cc4cc(F)ccc14)CCc1cc(nn1C)CCC3OCC2 (stereo not drawn) [Compound 27] | – | 8.5 nM | –
21 | Cc1nn2c3c1-c1c(Cl)ccc4c1c(C)c(C(=O)O)n4CCCOc1cc(cc4cc(F)ccc14)CCc1cc(nn1C)CCC3OCC2 (stereo not drawn) [Compound 28] | – | > 30 nM | –
22 | Cc1nn2c3c1-c1c(Cl)ccc4c1c(C)c(C(=O)O)n4CCCOc1cc(cc4cc(F)ccc14)CCc1cc(nn1C)CCC3OCC2 (stereo not drawn) [Compound 30] | – | 52.8 nM | –
23 | COCCn1nc2cc1CCc1cc(c3ccc(F)cc3c1)OCCCn1c(C(=O)O)c(C)c3c(c(Cl)ccc31)-c1c(C)nn3c1C(CC2)OCC3 (stereo not drawn) [Compound 31] | – | – | 48.6 nM
